Experiments:
Assay in all cases: selective drug sensitivity score (sDSS, relative to normal bone marrow) (sDSS (score)); higher = more potent and effective on the cell line relative to normal bone marrow cells
Settings in all cases: 72 h
[1] = system: 380
[2] = system: ALL-SIL
[3] = system: COG-LL-319h
[4] = system: DND-41
[5] = system: LC4-1
[6] = system: MOLT-16
[7] = system: HPB-ALL
[8] = system: MHH-CALL-2
[9] = system: SUP-B15
[10] = system: 697
[11] = system: TMD5
[12] = system: MHH-CALL-3
[13] = system: KASUMI-2
[14] = system: COG-LL-355h
[15] = system: JURKAT
[16] = system: NALL-1
[17] = system: NALM-16
[18] = system: P30-OHKUBO
[19] = system: TANOUE
[20] = system: REH
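Further: ALL cell lines in 384-well plates, five doses spanning 10,000-fold, each plate scaled between vehicle and 100 µmol/L benzalkonium chloride controls, sDSS an adapted area-under-curve metric.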

SMILES | selective drug sensitivity score [1] | selective drug sensitivity score [2] | selective drug sensitivity score [3] | selective drug sensitivity score [4] | selective drug sensitivity score [5] | selective drug sensitivity score [6] | selective drug sensitivity score [7] | selective drug sensitivity score [8] | selective drug sensitivity score [9] | selective drug sensitivity score [10] | selective drug sensitivity score [11] | selective drug sensitivity score [12] | selective drug sensitivity score [13] | selective drug sensitivity score [14] | selective drug sensitivity score [15] | selective drug sensitivity score [16] | selective drug sensitivity score [17] | selective drug sensitivity score [18] | selective drug sensitivity score [19] | selective drug sensitivity score [20]
COC12C(COC(N)=O)C3=C(C(=O)C(C)=C(N)C3=O)N1CC1NC12 (stereo in doubt) [Mitomycin_C] (top concentration 10000 nM) | -1.36 | -2.86 | 9.74 | -2.86 | 2.34 | -2.86 | -1.16 | 1.54 | 1.24 | 2.34 | -1.96 | -2.86 | 4.24 | 0.44 | -2.86 | -2.86 | -2.86 | 2.24 | -2.86 | 3.74
Cc1c(-c2c(-c3ccc(F)o3)sc3ncnc(O[C@H](Cc4ccccc4OCc4ccnn4CC(F)(F)F)C(=O)O)c23)ccc(OCCN2CCN(C)CC2)c1Cl (top concentration 1000 nM) | 0.86 | -1.04 | 15.8 | -7.74 | -0.54 | 7.46 | -2.44 | -6.04 | 6.36 | -0.84 | -7.74 | 1.56 | -4.34 | 4.66 | -6.44 | -7.74 | -4.64 | 1.26 | -7.74 | -6.84
Cc1ncc(Cl)cc1NCc1ccc(C(=O)N[C@@H](CC2CCCC2)C(=O)NC2CC2)s1 (top concentration 5000 nM) | 9.86 | 4.16 | 14.3 | -0.94 | -0.94 | 3.96 | 1.36 | -0.24 | 3.46 | -0.94 | -0.94 | 8.26 | 4.56 | 2.26 | 0.76 | -0.94 | 1.06 | -0.94 | -0.94 | -0.84
CCn1c(-c2nonc2N)nc2c(C#CC(C)(C)O)ncc(OC[C@H]3CCCNC3)c21 (top concentration 10000 nM) | 8.58 | 6.68 | 7.38 | -1.12 | 1.08 | 11.6 | 3.98 | 3.48 | -0.32 | 8.28 | -1.12 | 3.38 | 6.38 | 8.98 | 7.48 | -0.32 | 2.68 | 3.88 | -1.12 | 12.9
CN(c1ncccc1CNc1nc(Nc2ccc3c(c2)CC(=O)N3)ncc1C(F)(F)F)S(C)(=O)=O (top concentration 10000 nM) | 4.02 | 4.92 | 4.52 | 0.62 | 3.82 | 2.82 | -1.18 | -1.28 | 4.62 | 2.62 | -3.28 | 4.82 | -0.38 | 0.82 | 1.52 | 2.42 | 0.42 | 2.72 | -3.98 | 5.12
CNc1ncc2cc(-c3cc(NC(=O)NCCC(C)(C)C)c(F)cc3C)c(C)nc2n1 (top concentration 10000 nM) | 7.76 | 20.7 | 12.1 | 8.06 | 7.86 | 5.06 | 2.46 | 9.76 | 16.1 | 10.5 | 7.86 | 8.66 | 0.36 | 9.16 | 2.56 | 4.96 | 1.76 | 5.86 | -2.84 | -2.24
C[C@@]1(C(=O)Nc2ccc(F)nc2)CCCN1c1nc(Nc2cc(C3CC3)n[nH]2)c2cccn2n1 (top concentration 10000 nM) | 18.1 | 10.5 | 8.78 | -5.02 | 11.4 | 12.5 | 8.28 | 11.7 | 8.98 | 11.8 | -0.12 | 3.28 | -6.52 | 12.1 | -2.62 | 8.98 | 2.88 | 11.2 | -6.52 | 9.08
Cc1nc(Nc2n[nH]c3c2CN(C(=O)N[C@H](CN(C)C)c2ccccc2)C3(C)C)c2sccc2n1 (top concentration 10000 nM) | 22.2 | -5.82 | 4.28 | 0.98 | 3.98 | 22.7 | -1.72 | 0.38 | 12.8 | 16.4 | -7.92 | 0.18 | 3.28 | 3.98 | 0.68 | -7.42 | 2.58 | 12 | -11.1 | -3.72
Cn1cc(-c2[nH]c3cc(NC(=O)[C@H](N)C4CCCCC4)cc4c3c2C=NNC4=O)cn1 (top concentration 10000 nM) | 8.68 | 9.18 | 11.5 | 10.3 | 7.58 | 9.68 | 9.68 | 3.48 | 6.58 | 9.38 | -0.12 | 0.38 | -6.12 | 1.98 | 3.48 | 4.58 | 3.98 | 9.08 | -5.22 | 10.2
Cn1cc(-c2ccc(F)c(C(F)(F)F)c2)nc1C1CCN(c2ncnc3[nH]ncc23)CC1 (top concentration 10000 nM) | 12.3 | 0.06 | 3.76 | 1.16 | 5.56 | 0.36 | -0.14 | 0.26 | 8.76 | 0.76 | -0.14 | 5.16 | 13.3 | -0.14 | -0.14 | 0.46 | -0.14 | -0.14 | 0.96 | -0.14
O=C(Nc1ccc2[nH]nc(-c3ccncc3)c2c1)[C@@H]1CCN(CC(=O)N2CCN(c3ccc(-c4ncccn4)cc3)CC2)C1 (top concentration 10000 nM) | 1.66 | 0.16 | 2.16 | 4.46 | 4.26 | 1.06 | -0.44 | 1.26 | 12.6 | 0.66 | -0.34 | 7.16 | 6.16 | 6.26 | -2.04 | -4.14 | -4.24 | -3.74 | -4.64 | 4.86
CC(C)(C)c1cc(NC(=O)Nc2ccc(Oc3ccnc4[nH]c(=O)cnc34)cc2F)n(-c2ccccc2)n1 (top concentration 25000 nM) | -4.68 | 16.1 | -1.08 | -0.78 | -1.48 | -1.08 | 1.12 | -1.48 | 10.6 | 4.72 | 2.32 | -3.58 | -1.38 | 1.92 | -1.48 | -0.38 | -2.78 | -0.08 | -5.68 | -0.78
Nc1ncnc2c1nc(N)n2[C@@H]1O[C@H](CO)[C@@H](O)[C@H]1O [8-amino-adenosine] (top concentration 50000 nM) | 9.38 | 2.68 | 6.78 | -0.62 | 7.78 | 5.68 | -3.82 | 3.28 | 7.28 | 6.48 | 2.68 | 5.38 | 6.08 | -1.42 | -5.42 | 2.08 | 4.48 | 6.18 | 0.98 | 2.88
CC(C)[C@@H](CS(=O)(=O)C(C)C)N1C(=O)[C@@](C)(CC(=O)O)C[C@H](c2cccc(Cl)c2)[C@H]1c1ccc(Cl)cc1 [AMG-232] (top concentration 10000 nM) | 13 | -8.14 | 11.4 | -8.84 | 11.3 | 8.06 | -9.34 | 11.7 | 16.5 | 9.06 | 6.76 | 12.6 | 12.3 | 8.76 | -8.34 | -8.14 | -10.2 | 8.96 | -10.5 | 8.36
CC(C)[C@H](C(=O)Nc1ccc(C(=O)NO)cc1)c1ccccc1 [AR-42] (top concentration 10000 nM) | 10.1 | 10.2 | 10.8 | 6.98 | 6.88 | 8.38 | 9.78 | 11 | 9.58 | 9.58 | 5.28 | 14.3 | 16 | 6.68 | 5.28 | 3.68 | 1.68 | 5.18 | -4.22 | 5.38
O=C(Nc1c[nH]nc1-c1nc2ccc(CN3CCOCC3)cc2[nH]1)NC1CC1 [AT9283] (top concentration 1000 nM) | 11.3 | 15.6 | 11.3 | -0.68 | 12.4 | 8.22 | -1.48 | 3.42 | 12.6 | 12.1 | 7.32 | 10.4 | 6.22 | 6.22 | -1.38 | 9.02 | -0.68 | 16 | -4.38 | 11.6
CCN(CCO)CCCOc1ccc2c(Nc3cc(CC(=O)Nc4cccc(F)c4)[nH]n3)ncnc2c1 [AZD1152-HQPA] (top concentration 1000 nM) | 20.8 | 23.4 | 24.2 | -1.46 | 23.2 | 27.7 | 4.34 | 6.64 | 22.2 | 16.5 | 9.14 | 5.24 | 6.44 | 8.84 | -0.26 | 9.54 | 0.34 | 24.7 | -3.06 | 17.2
Cc1[nH]nc(C(F)(F)F)c1Cc1sc2c(c1C(=O)N1C[C@](C)(O)CO1)c(=O)n(C)c(=O)n2C(C)C [AZD3965] (top concentration 1000 nM) | 4.2 | 0 | 0 | 0 | 1.5 | 0 | 0.1 | 1.4 | 7.1 | 3.6 | 2.6 | 0 | 3.8 | 0 | 0 | 3.8 | 0 | 1.8 | 2.6 | 3.6
